Tests used:
[1] = tested on: human colorectal cancer cell line (HCT116); experiment: MTT assay, HCT116 cell line; assay type: cell-based; conditions: for IC50: Homo sapiens, HCT-116, read-out: Anticancer activity (IC50) HCT116; for anticancer action against HCT116 (in words): SAR discussion
[2] = tested on: human lung adenocarcinoma cell line (A549); experiment: MTT assay, A549 cell line; assay type: cell-based; conditions: SAR discussion

| Structure (SMILES) | IC50 [1] [µM] | anticancer action against HCT116 (in words) [1] | inhibitory potential against A549 (in words) [2] |
| --- | --- | --- | --- |
| O=C(Cn1cc(COc2ncnc3[nH]cnc23)nn1)Nc1ccc(O)cc1 [5 h, 2-(4-(((9 H-purin-6-yl)oxy)methyl)-1 H-1,2,3-triazol-1-yl)-N-(4-hydroxyphenyl)acetamide] | 12.3 ± 0.52 | moderately inhibited |  |
| Cc1cccc(NC(=O)Cn2cc(COc3ncnc4[nH]cnc34)nn2)c1 [5c, 2-(4-(((9 H-purin-6-yl)oxy)methyl)-1 H-1,2,3-triazol-1-yl)-N-(m-tolyl)acetamide] |  |  | significantly reduced |
| Cc1cncc(NC(=O)Cn2cc(COc3ncnc4[nH]cnc34)nn2)c1 [5a, 2-(4-(((9 H-purin-6-yl)oxy)methyl)-1 H-1,2,3-triazol-1-yl)-N-(5-methylpyridin-3-yl)acetamide] | 6.23 ± 0.23 |  |  |
| COc1cccc(NC(=O)Cn2cc(COc3ncnc4[nH]cnc34)nn2)c1 [5 g, 2-(4-(((9 H-purin-6-yl)oxy)methyl)-1 H-1,2,3-triazol-1-yl)-N-(3-methoxyphenyl)acetamide] | > 100 | did not exhibit anticancer action |  |
| Cc1ccc(NC(=O)Cn2cc(COc3ncnc4[nH]cnc34)nn2)c(C)c1 [5d, 2-(4-(((9 H-purin-6-yl)oxy)methyl)-1 H-1,2,3-triazol-1-yl)-N-(2,4-dimethylphenyl)acetamide] |  | did not exhibit anticancer action |  |
| COc1ccc(CNC(=O)Cn2cc(COc3ncnc4[nH]cnc34)nn2)cc1 [5k, 2-(4-(((9 H-purin-6-yl)oxy)methyl)-1 H-1,2,3-triazol-1-yl)-N-(4-methoxybenzyl)acetamide] |  | did not exhibit anticancer action |  |

Now from value to compound, other results behind:

| IC50 [1] [µM] | Structure (SMILES) | anticancer action against HCT116 (in words) [1] | inhibitory potential against A549 (in words) [2] |
| --- | --- | --- | --- |
| 15.6 ± 0.45 | O=Cc1cccc(NC(=O)Cn2cc(COc3ncnc4[nH]cnc34)nn2)c1 [5b, 2-(4-(((9 H-purin-6-yl)oxy)methyl)-1 H-1,2,3-triazol-1-yl)-N-(3-formylphenyl)acetamide] |  |  |
| 6.11 ± 0.29 | O=C(Cn1cc(COc2ncnc3[nH]cnc23)nn1)Nc1ccc(F)c(Cl)c1 [5e, 2-(4-(((9 H-purin-6-yl)oxy)methyl)-1 H-1,2,3-triazol-1-yl)-N-(3-chloro-4-fluorophenyl)acetamide] |  |  |
| 7.88 ± 0.6 | O=C(Cn1cc(COc2ncnc3[nH]cnc23)nn1)NCc1ccc(O)cc1 [5i, 2-(4-(((9 H-purin-6-yl)oxy)methyl)-1 H-1,2,3-triazol-1-yl)-N-(4-hydroxybenzyl)acetamide] | moderately inhibited | significantly reduced |
| 22.6 ± 0.38 | O=C(Cn1cc(COc2ncnc3[nH]cnc23)nn1)NCc1ccc(Cl)cc1 [5j, 2-(4-(((9 H-purin-6-yl)oxy)methyl)-1 H-1,2,3-triazol-1-yl)-N-(4-chlorobenzyl)acetamide] |  |  |
| 7.27 ± 0.39 | COc1cccc2c1C(=O)c1c(O)c3c(c(O)c1C2=O)C[C@@](O)(C(=O)CO)C[C@@H]3O[C@H]1C[C@H](N)[C@H](O)[C@H](C)O1 [DXN, doxorubicin, reference compound] |  |  |
| 13.9 ± 0.19 | O=C(Cn1cc(COc2ncnc3[nH]cnc23)nn1)Nc1ccc([N+](=O)[O-])cc1 [5f, 2-(4-(((9 H-purin-6-yl)oxy)methyl)-1 H-1,2,3-triazol-1-yl)-N-(4-nitrophenyl)acetamide] |  | significantly reduced |

Reference: paper PMC12287522 (Scientific Reports, 2025)
